Assay results published in publication PMC4832243, “Discovery of Potent VEGFR-2 Inhibitors based on Furopyrimidine and Thienopyrimidne Scaffolds as Cancer Targeting Agents” (Scientific Reports, 2016).

Tests used:
c-Kit = c-Kit (Homo sapiens, UniProt P10721); test: In vitro multiple-kinase inhibition assay, c-Kit (ADP-Glo); format: biochemical
Description: (§1) In vitro multiple-kinase inhibition assay. […] Kinase enzymatic activity of the tested compounds was evaluated against a reference kinase inhibitor at 10 μM (Table 2).
(§2) The multiple kinases activity at single dose concentration of 10 μM was performed, c-Kit, c-Raf, c-Src, RET served as the enzyme source. […] Kinase-Glo Plus Luminescence kinase assay kit (Promega#V3772), ADP-Glo Luminescence assay kit was used for c-kit assay (Supplementary). […]
(§3) mM MgCl2, 0.1 mg/ml BSA, 1 mM DTT, 10 µM ATP, Kinase substrate and VEGFR. After the enzymatic reaction, 50 µl of Kinase-Glo Plus Luminescence kinase assay solution (Promega) was added to each reaction and incubate the plate for 5 minutes at room temperature.
(§4) Luminescence signal was measured using a BioTek Synergy 2 microplate reader. VEGFR activity assays were performed in duplicate at each concentration.
(§5) The luminescence data were analyzed using the computer software, Graphpad Prism. The difference between luminescence intensities in the absence of VEGFR (Lut) and in the presence of VEGFR (Luc) was defined as 100 % activity (Lut – Luc). Using luminescence signal (Lu) in the presence of the compound, % activity was calculated as:
(§6) % activity = {(Lut - Lu)/(Lut - Luc)}×100%, where Lu= the luminescence intensity in the […]
(§7) IC50 determination for inhibitor against VEGFR was calculated. The values of % activity versus a series of compound concentrations (1 nM - 10 nM - 100 nM - 1 µM - 10 µM) were then […]
(§8) or Hill coefficient. The IC50 value was determined by the concentration causing a half-maximal […]
(§9) In vitro multiple-kinase inhibition assay
The assay was performed using the same conditions for VEGFR-2 activity assay (section 5.2.1.1). The assays for c-Kit was an exception, it was performed using ADP-Glo Kinase assay reagents (Promega). It measures kinase activity by quantitating the ADP amount produced from the enzymatic reaction. The luminescent signal from the assay is correlated with the amount of ADP present and is directly correlated with the amount of kinase activity. Other conditions are same to the previous section except the final reaction volume was reduced to 25 µl. After the 40 min kinase reaction at 30 °C, 25 µl of ADP-Glo reagent was added and incubated for 45 min at room temperature followed by another 50 min incubation with 50 µl of Kinase detection mixture.
(§10) Luminescence signal was measured using a BioTek Synergy 2 microplate reader […]
(§11) The luminescence data were analyzed using the same computer software and the same protocol

c-Raf = c-Raf (Homo sapiens, UniProt P04049); test: In vitro multiple-kinase inhibition assay, c-Raf; format: biochemical
Description: as §1, §2, §3, §4, §5, §6, §7, §8, §9, §10, §11

c-Src = c-Src (Homo sapiens, UniProt P12931); test: In vitro multiple-kinase inhibition assay, c-Src; format: biochemical
Description: as §1, §2, §3, §4, §5, §6, §7, §8, §9, §10, §11

RET = RET (Homo sapiens, UniProt P07949); test: In vitro multiple-kinase inhibition assay, RET; format: biochemical
Description: as §1, §2, §3, §4, §5, §6, §7, §8, §9, §10, §11

[1] = test system: Ehrlich ascites carcinoma (EAC) solid tumor; test: In vivo anticancer activity, EAC solid tumor murine model; parameters: species or system Swiss albino mice; details: for TGI (%): once daily for 8 consecutive days; for Histopathological examination of EAC tumor sections (necrosis): hematoxylin-eosin, 40x
Description: Animals. Female Swiss albino mice weighing 15–20 g were used in the present study. They were obtained from the animal breeding laboratory, National Cancer Institute (NCI), Cairo University, Egypt. Animals were kept in our animal facility, faculty of pharmacy, Ain Shams university at 25 ± 2 °C and a relative humidity of 40–45% with alternative day and night cycles of 12 h each. Animals had free access to pellet food and water ad libitum. Standard diet pellets (El-Nasr, Abu Zaabal, Egypt) contained not less than 20% protein, 5% fiber, 3.5% fat, 6.5% ash and a vitamin mixture. Animal care and experiments were conducted in accordance with the protocols approved by the Ethics Research Committee, Faculty of Pharmacy, Ain Shams University, following the Institutional Animal Care and Use Committee guidelines.
Tumor cells preparation and transplantation. Ehrlich ascites carcinoma (EAC) cells were obtained from NCI, Cairo University, Egypt. EAC cells were maintained in the ascitic form in Swiss albino mice by intraperitoneal transplantation of each mouse every 10 days. Ascitic fluid was drawn from tumor-bearing mice at the log phase (7–8th day of tumor bearing) of the tumor cells. The freshly drawn fluid was diluted with ice-cold sterile isotonic saline. 200 μl tumor cell suspension containing 2 × 10^6 tumor cells were then subcutaneously injected in each mouse.
Experimental design. Swiss albino mice were divided into six groups (n = 6 per group).
Evaluation of effectiveness. Tumor growth curve was drawn according to the change in tumor volume from first day of treatment (day 0) till day 7. Longest and shortest diameters of the solid tumor were monitored using a digital vernier caliper. Tumor volume (TV) of each animal was calculated using the following formula: […]
Tumor growth inhibition (TGI) was calculated as follows.
RTV = (Tumor volume at the day of measurement)/Tumor volume at the initial day.
Histopathological Examination
thickness by slidge microtome.
graded ethanol solutions.

[2] = Toxicity: vital organs' indices and histopathology in EAC solid tumor bearing mice; format: in vivo, Swiss albino mice; details: for Brain Index / Heart Index / Kidney Index / Liver Index: mean ± SD (n = 6)
[3] = test system: VEGF-induced vascular permeability (Evans Blue extravasation); test: Miles vascular permeability assay; parameters: species or system mice; details: in vivo; 10 mg/kg (Fig. 15)
Description: Miles Vascular Permeability Assay. One to two days prior to the experiment, mice were shaved to expose the skin. Mice were anesthetized with intra-peritoneal injection of Avertin. A sterile solution of 1% Evans Blue (EB) in PBS was prepared and 100 μl was injected IV into the tail vein, using a needle (small gauge, 27–30) at a 10–15 degree angle. The animals were then left for (30–60) min. VEGF (50 μl of 1 ng/μl) and 50 μl of PBS with 0.05% gelatin were injected intradermally using a 30-gauge needle into the skin overlying the back. After 20 min, the animals were sacrificed by cervical dislocation that is recommended to limit significant interference with vascular permeability. The skin was opened, exposed and representative pictures were taken to assess the intensity of EB […]. The Formamide/EB mixture was centrifuged and supernatant absorbance was measured at 600 nm (Shimadzu Spectrophotometer, UV-1601; Japan). extravasation was calculated as ng EB per mg tissue.

phospho-VEGFR-2 (Tyr951) = phospho-VEGFR-2 (Tyr951) (Mus musculus, UniProt P35918); test: Immunohistochemistry of EAC solid tumor sections, phospho-VEGFR-2; details: oral treatment of EAC-bearing mice
active caspase 3 = test: Immunohistochemistry of EAC solid tumor sections, active caspase 3; details: oral treatment of EAC-bearing mice

Chain of c-Src (P12931 whole entry, species assumed): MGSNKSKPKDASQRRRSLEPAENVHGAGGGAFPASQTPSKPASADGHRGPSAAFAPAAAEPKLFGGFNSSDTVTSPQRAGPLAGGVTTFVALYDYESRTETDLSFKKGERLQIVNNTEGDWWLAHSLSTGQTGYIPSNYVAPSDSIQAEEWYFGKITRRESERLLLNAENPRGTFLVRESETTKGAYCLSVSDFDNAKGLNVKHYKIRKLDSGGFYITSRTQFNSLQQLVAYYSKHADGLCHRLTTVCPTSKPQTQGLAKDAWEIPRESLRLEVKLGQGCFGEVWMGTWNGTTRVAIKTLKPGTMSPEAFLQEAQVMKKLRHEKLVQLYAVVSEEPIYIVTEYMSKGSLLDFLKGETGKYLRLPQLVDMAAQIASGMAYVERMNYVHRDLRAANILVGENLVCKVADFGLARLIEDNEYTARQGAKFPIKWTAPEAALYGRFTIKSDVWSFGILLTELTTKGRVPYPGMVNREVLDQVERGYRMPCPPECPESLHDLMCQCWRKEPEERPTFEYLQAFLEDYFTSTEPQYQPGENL
Chain of RET (P07949 29-1114, species assumed): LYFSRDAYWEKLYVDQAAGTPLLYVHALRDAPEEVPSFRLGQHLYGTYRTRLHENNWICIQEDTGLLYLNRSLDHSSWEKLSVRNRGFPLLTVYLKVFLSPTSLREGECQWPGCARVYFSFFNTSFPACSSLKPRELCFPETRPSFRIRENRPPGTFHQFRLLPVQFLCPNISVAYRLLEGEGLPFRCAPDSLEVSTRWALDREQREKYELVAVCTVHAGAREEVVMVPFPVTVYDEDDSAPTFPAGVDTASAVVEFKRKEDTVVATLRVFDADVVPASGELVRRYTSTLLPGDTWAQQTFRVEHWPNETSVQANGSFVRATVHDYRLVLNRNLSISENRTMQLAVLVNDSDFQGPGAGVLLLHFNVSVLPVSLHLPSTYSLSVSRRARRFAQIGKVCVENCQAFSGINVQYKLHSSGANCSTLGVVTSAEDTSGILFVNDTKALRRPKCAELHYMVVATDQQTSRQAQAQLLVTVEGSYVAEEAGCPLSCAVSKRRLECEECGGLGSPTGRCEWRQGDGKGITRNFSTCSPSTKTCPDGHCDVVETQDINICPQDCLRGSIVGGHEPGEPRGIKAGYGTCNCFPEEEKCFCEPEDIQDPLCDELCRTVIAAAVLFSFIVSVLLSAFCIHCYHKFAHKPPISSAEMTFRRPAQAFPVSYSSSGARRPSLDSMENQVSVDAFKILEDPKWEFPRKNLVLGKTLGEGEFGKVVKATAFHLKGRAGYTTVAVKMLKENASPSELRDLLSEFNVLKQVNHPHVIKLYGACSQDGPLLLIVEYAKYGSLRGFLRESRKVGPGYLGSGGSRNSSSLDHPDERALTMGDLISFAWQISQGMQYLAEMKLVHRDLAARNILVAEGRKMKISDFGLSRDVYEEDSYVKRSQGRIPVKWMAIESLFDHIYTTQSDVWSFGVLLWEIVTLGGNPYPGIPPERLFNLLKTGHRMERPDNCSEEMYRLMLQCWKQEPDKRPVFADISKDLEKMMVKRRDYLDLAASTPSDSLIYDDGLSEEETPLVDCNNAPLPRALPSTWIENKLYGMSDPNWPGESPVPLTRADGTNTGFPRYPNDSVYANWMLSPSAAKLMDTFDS
Chain of c-Kit (P10721 26-976): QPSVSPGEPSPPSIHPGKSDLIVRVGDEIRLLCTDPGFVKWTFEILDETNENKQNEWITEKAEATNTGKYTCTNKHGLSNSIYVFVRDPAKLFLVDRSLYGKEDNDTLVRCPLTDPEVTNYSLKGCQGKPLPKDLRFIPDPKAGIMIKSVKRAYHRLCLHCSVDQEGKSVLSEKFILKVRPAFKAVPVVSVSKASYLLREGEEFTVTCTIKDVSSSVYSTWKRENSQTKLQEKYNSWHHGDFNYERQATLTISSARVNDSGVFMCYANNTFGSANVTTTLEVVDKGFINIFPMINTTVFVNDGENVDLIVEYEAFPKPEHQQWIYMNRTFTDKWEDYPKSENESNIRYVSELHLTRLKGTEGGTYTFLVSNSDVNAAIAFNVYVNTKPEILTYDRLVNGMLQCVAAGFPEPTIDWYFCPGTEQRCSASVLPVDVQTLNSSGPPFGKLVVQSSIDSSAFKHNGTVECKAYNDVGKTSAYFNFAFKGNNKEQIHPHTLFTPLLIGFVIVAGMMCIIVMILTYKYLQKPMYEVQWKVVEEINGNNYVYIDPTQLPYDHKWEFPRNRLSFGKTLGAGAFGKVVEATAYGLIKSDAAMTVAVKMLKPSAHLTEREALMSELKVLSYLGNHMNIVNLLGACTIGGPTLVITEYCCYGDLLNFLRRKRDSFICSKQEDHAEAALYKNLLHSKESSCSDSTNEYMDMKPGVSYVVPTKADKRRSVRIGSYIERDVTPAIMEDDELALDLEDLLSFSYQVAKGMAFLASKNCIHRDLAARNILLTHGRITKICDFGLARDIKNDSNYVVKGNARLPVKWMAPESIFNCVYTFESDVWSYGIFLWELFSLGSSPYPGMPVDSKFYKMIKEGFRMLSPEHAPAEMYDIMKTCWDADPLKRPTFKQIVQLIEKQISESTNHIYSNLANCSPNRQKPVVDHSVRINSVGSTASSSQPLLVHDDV
Chain of c-Raf (P04049 whole entry, species assumed): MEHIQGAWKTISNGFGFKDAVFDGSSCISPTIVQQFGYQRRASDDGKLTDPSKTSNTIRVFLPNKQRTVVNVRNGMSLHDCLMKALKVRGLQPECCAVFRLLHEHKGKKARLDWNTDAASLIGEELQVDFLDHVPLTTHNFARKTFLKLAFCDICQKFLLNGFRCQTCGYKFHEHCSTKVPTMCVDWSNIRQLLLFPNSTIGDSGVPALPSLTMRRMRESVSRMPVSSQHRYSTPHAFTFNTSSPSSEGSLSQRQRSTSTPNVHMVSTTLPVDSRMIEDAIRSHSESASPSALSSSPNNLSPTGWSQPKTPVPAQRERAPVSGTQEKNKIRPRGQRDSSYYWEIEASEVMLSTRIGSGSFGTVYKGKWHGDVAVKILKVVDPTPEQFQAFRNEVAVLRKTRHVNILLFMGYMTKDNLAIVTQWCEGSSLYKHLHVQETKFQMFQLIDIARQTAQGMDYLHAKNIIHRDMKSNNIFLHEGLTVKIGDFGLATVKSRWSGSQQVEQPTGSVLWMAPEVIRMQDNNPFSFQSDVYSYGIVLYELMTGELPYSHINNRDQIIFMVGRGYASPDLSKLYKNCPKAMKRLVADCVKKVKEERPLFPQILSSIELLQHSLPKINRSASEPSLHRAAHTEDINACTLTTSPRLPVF
Chain of phospho-VEGFR-2 (Tyr951) (P35918 20-1345): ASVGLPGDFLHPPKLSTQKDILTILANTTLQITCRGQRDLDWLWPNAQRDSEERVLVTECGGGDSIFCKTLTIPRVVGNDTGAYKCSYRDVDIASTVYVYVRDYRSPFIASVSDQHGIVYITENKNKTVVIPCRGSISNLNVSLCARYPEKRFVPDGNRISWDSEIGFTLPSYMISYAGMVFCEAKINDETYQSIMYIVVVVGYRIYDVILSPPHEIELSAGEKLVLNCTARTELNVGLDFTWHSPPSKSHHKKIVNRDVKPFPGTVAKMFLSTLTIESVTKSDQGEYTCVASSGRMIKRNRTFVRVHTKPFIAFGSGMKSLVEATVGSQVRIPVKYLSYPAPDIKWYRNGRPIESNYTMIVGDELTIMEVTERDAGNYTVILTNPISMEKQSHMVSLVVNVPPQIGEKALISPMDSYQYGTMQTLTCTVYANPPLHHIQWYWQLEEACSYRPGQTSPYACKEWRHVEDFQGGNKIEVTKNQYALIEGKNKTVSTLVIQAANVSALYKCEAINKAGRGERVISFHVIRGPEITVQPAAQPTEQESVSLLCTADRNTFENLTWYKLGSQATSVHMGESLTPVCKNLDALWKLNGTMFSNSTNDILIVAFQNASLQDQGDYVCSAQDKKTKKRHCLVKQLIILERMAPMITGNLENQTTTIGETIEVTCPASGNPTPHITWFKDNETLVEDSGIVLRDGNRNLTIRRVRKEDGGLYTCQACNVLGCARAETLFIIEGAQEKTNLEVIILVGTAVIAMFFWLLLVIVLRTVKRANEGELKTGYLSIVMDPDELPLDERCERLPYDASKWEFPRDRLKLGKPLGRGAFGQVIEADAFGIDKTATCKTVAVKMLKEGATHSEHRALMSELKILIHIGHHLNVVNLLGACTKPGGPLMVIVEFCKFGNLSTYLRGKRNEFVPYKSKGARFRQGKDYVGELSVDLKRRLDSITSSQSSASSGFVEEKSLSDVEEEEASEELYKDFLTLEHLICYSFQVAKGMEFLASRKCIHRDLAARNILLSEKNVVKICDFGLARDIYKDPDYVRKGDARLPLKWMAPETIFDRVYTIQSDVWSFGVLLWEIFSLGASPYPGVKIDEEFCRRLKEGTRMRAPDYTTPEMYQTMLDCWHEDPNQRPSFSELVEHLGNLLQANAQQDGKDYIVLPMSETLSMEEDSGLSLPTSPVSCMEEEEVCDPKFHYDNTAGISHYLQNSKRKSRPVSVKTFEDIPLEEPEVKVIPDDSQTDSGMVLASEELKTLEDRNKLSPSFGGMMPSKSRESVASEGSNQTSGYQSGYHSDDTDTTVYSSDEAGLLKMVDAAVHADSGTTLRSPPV

COc1cccc(NC(=O)Nc2ccc(Oc3ncnc4sc5c(c34)CCCC5)cc2)c1 [Compound 21c]
inhibition at 10 µM (c-Kit): 83%
inhibition at 10 µM (c-Raf): 26%
inhibition at 10 µM (c-Src): 8%
inhibition at 10 µM (RET): 91%

Cc1cccc(NC(=O)Nc2ccc(Oc3ncnc4sc5c(c34)CCCC5)cc2)c1 [Compound 21b]
inhibition at 10 µM (c-Kit): 81%
inhibition at 10 µM (c-Raf): 35%
inhibition at 10 µM (c-Src): 7%
inhibition at 10 µM (RET): 87%
Tumor Index ([1]; 5 mg/kg/day po, 8 consecutive days, mean ± SD, n = 6): 0.041 ± 0.016
TGI (%) ([1]; 5 mg/kg/day po): 70.7%
Histopathological examination of EAC tumor sections (necrosis) ([1]; 5 mg/kg): mild focal necrosis
TGI (%) ([1]; 10 mg/kg/day po): 86.4%
Histopathological examination of EAC tumor sections (necrosis) ([1]; 10 mg/kg): moderate diffuse necrosis
Brain Index ([2]; 5 mg/kg/day po): 0.0164 ± 0.004
Heart Index ([2]; 5 mg/kg/day po): 0.0048 ± 0.0014
Kidney Index ([2]; 5 mg/kg/day po): 0.012 ± 0.003
Liver Index ([2]; 5 mg/kg/day po): 0.049 ± 0.01
Brain Index ([2]; 10 mg/kg/day po): 0.0167 ± 0.004
Heart Index ([2]; 10 mg/kg/day po): 0.0046 ± 0.0017
Kidney Index ([2]; 10 mg/kg/day po): 0.011 ± 0.003
Liver Index ([2]; 10 mg/kg/day po): 0.051 ± 0.017
Histopathological examination of liver, kidney, heart and brain samples ([2]; 10 mg/kg, EAC solid tumor bearing mice (40x)): focally degenerated hepatocytes
Toxicity (overall statement) ([2]; oral, 5 and 10 mg/kg/day for 8 consecutive days): did not show any noticeable toxicity
Antiangiogenic effect in Miles vascular permeability assay [3]: confirmed the antiangiogenic effects
VEGFR-2 phosphorylation in EAC solid tumor (phospho-VEGFR-2 (Tyr951)): decreased VEGFR-2 phosphoryaltion
Active caspase 3 levels in EAC solid tumor (active caspase 3): increased active caspase 3 levels
